Experiments:
TGF-beta receptor type-1 [1] = biological target: T1, TGF-beta receptor type-1 (Homo sapiens, UniProt P36897); assay: Inhibition of recombinant N-terminal GST tagged human ALK5 (200 to 503 residues) expressed in baculovirus expression system using FAM-NH2-KVLTQMGSPSIRCSS[PO4]VS peptide as substrate after 90 mins by LanthaScreen TR-FRET assay
T1 sequence (P36897 whole entry): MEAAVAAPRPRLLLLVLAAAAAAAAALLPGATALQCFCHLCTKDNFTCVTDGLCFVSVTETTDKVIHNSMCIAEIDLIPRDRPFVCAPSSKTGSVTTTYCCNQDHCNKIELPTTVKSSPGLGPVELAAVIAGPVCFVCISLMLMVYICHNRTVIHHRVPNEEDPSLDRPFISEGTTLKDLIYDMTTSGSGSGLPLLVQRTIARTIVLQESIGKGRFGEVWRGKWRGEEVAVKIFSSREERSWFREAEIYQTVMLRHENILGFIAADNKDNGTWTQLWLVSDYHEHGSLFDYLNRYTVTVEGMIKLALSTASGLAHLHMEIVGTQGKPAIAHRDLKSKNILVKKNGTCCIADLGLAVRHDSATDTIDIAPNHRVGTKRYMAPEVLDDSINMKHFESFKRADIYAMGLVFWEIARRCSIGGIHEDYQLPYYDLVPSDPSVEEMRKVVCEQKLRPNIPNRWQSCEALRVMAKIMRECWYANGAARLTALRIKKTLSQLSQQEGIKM

TGF-beta receptor type-1 [2] = biological target: T1, TGF-beta receptor type-1; assay: Inhibition of ALK5 in human Calu6 cells assessed as reduction in Smad2/3 phosphorylation; type: cell-based
[3] = Hepatic extraction ratio in human; type: ADME; details: read-out: ERH
[4] = Hepatic extraction ratio in rat; type: ADME; details: read-out: ERH
Cytochrome P450 2C8 = biological target: T2, Cytochrome P450 2C8 (Homo sapiens, UniProt P10632); assay: Inhibition of CYP2C8 (unknown origin); type: ADME
T2 sequence (P10632 whole entry): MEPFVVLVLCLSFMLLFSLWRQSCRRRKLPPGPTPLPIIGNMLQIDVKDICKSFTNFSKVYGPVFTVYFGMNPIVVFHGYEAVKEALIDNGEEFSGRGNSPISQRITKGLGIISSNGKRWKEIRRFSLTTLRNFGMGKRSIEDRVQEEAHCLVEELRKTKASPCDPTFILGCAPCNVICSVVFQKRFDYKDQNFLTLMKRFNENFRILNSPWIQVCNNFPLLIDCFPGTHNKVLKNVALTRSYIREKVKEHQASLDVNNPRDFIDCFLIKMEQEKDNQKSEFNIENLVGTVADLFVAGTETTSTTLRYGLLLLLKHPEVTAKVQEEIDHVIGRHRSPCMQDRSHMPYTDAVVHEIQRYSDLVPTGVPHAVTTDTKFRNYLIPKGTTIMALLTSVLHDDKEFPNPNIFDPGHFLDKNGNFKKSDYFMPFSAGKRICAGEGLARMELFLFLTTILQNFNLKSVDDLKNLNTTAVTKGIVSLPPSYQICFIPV

Cytochrome P450 3A4 = Cytochrome P450 3A4 (Homo sapiens, UniProt P08684); assay: Inhibition of CYP3A4 (unknown origin); type: ADME
Cytochrome P450 3A4, sequence (P08684 whole entry): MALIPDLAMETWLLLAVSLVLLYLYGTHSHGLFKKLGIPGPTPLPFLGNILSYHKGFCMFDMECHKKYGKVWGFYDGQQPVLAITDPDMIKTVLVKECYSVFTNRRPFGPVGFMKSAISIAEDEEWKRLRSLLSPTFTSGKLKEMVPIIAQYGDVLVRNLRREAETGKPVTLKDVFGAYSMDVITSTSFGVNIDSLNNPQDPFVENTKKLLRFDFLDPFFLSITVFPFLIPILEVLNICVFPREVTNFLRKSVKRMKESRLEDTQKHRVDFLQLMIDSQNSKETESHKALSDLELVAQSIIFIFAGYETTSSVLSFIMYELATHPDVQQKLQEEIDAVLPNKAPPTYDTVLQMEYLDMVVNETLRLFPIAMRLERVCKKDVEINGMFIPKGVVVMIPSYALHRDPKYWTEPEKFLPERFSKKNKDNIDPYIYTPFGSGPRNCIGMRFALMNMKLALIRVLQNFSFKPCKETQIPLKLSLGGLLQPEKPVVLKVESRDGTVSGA

TGF-beta receptor type-1 [5] = biological target: T1, TGF-beta receptor type-1; assay: Inhibition of ALK5 (unknown origin) expressed in SBE-bla HEK293T cells assessed as decrease in TGFbeta1-induced Smad2/3 phosphorylation by beta lactamase reporter gene assay; type: cell-based
[6] = Clearance in rat microsomes; type: ADME, Microsome
[7] = Clearance in human microsomes; type: ADME, Microsome
hERG (KCNH2) = hERG (KCNH2) (Homo sapiens, UniProt Q12809); assay: Inhibition of human ERG expressed in CHOK1 cells at 10 uM by automated whole cell patch clamp Qpatch method relative to control; type: cell-based; details: CHO-K1 cells expressing human ERG
hERG (KCNH2), sequence (Q12809 whole entry): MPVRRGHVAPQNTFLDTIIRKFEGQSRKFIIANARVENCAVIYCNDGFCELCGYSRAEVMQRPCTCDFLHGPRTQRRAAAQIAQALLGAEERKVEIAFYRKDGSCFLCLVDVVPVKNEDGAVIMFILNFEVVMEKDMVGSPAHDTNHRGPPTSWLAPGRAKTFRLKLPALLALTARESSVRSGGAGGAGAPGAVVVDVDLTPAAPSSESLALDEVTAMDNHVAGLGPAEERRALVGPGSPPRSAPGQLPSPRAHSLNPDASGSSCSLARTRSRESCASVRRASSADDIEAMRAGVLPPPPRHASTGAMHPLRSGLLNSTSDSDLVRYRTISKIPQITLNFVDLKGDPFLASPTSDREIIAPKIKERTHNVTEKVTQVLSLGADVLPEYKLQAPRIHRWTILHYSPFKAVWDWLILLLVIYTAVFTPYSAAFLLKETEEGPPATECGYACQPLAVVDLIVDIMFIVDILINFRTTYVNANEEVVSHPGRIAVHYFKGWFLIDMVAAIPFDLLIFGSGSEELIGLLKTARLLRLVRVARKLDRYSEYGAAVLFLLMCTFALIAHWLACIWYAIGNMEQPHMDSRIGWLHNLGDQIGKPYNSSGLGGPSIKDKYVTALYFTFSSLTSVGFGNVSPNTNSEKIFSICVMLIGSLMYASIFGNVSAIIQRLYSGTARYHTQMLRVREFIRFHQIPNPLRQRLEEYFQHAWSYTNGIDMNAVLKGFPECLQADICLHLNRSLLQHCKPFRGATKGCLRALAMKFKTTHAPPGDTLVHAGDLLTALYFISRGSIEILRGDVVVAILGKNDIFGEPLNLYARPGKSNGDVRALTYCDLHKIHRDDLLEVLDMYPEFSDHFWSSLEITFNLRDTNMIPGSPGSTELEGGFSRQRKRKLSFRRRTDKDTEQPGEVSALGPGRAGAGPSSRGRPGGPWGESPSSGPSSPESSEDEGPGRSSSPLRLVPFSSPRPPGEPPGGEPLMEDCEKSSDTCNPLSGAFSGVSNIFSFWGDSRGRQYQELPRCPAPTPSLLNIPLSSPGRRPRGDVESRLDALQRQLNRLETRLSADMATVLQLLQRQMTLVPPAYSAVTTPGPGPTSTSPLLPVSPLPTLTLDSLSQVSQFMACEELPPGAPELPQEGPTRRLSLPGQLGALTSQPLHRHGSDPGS

[8] = Oral bioavailability in rat; type: ADME, organism-based; details: in vivo
[9] = Clearance in rat; type: ADME; details: in vivo

IC50 (TGF-beta receptor type-1 [1])	EC50 (TGF-beta receptor type-1 [2])	hepatic extraction ratio [3]	hepatic extraction ratio [4]	EC50 (TGF-beta receptor type-1 [5])	SMILES	other results
2.51 nM	31.6 nM	0.57	0.74	–	Cc1ccc(F)c(-c2cc(Nc3ccnc4cn[nH]c34)c(C)cn2)n1	IC50 (Cytochrome P450 2C8): 2510 nM; IC50 (Cytochrome P450 3A4): 6310 nM
20 nM	–	–	–	–	COc1cccc2nccc(Nc3ccnc(-c4cc(Cl)ccc4F)c3)c12	–
–	20 nM	< 0.23	0.2	25.1 nM	CNC(=O)n1ncc2nccc(Nc3cc(-c4cc(F)ccc4F)ncc3C)c21	–
12.6 nM	–	–	–	–	COc1cccc2nccc(Nc3cc(-c4cc(Cl)ccc4F)ncc3C)c12	CLint scaled [6]: 302 mL/min/kg; CLint scaled [7]: 86 mL/min/kg; inhibition at 10 µM (hERG (KCNH2)): 94%
25.1 nM	–	–	–	–	CCc1cnc(-c2cc(Cl)ccc2F)cc1Nc1ccnc2cccc(OC)c12	–
7.94 nM	501 nM	0.3	0.3	100 nM	Cc1ccc(F)c(-c2cc(Nc3ccnc4cnn(C[C@@H](C)O)c34)c(C)cn2)n1	inhibition at 10 µM (hERG (KCNH2)): 42%; bioavailability [8]: 38%
5.01 nM	200 nM	–	–	31.6 nM	Cc1cccc(-c2cc(Nc3ccnc4cn[nH]c34)c(C)cn2)n1	–
15.8 nM	–	0.57	0.75	31.6 nM	Cc1cnc(-c2cc(Cl)ccc2F)cc1Nc1ccnc2cn[nH]c12	IC50 (Cytochrome P450 2C8): 398 nM; IC50 (Cytochrome P450 3A4): 3160 nM
–	31.6 nM	0.46	0.56	12.6 nM	Cc1cnc(-c2cc(Cl)ccc2F)cc1Nc1ccnc2cn(CC(N)=O)nc12	inhibition at 10 µM (hERG (KCNH2)): 41 to 59%; IC50 (Cytochrome P450 3A4): > 50100 nM
10 nM	158 nM	–	–	15.8 nM	CCn1cc2nccc(Nc3cc(-c4cc(C)ccc4F)ncc3C)c2n1	–
–	31.6 nM	0.74	0.84	7.94 nM	Cc1cnc(-c2cc(F)ccc2F)cc1Nc1ccnc2cn[nH]c12	IC50 (Cytochrome P450 2C8): 316 nM; IC50 (Cytochrome P450 3A4): 1580 nM
631 nM	–	–	–	–	COc1cccc2nccc(Nc3ccnc(-c4ccccc4)c3)c12	–
12.6 nM	–	–	–	–	COc1cccc2nccc(Nc3cc(-c4cc(C)ccc4F)ncc3C)c12	–
–	1260 nM	0.53	0.57	200 nM	NC(=O)Cn1ncc2nccc(Nc3ccnc(-c4cc(F)ccc4F)c3)c21	–
15.8 nM	–	0.51	0.52	31.6 nM	CNC(=O)n1ncc2nccc(Nc3cc(-c4cc(Cl)ccc4F)ncc3C)c21	–
–	–	0.91	0.93	–	Fc1ccc(Cl)cc1-c1cc(Nc2ccnc3cnn(CC4CCNCC4)c23)ccn1	–
3.16 nM	63.1 nM	0.57	0.31	25.1 nM	CNC(=O)n1ncc2nccc(Nc3ccnc(-c4cc(Cl)ccc4F)c3)c21	–

IC50 (TGF-beta receptor type-1 [1])	EC50 (TGF-beta receptor type-1 [2])	hepatic extraction ratio [3]	hepatic extraction ratio [4]	EC50 (TGF-beta receptor type-1 [5])	SMILES	other results
12.6 nM	–	–	–	20 nM	Cc1ccc(F)c(-c2cc(Nc3ccnc4cnn(CCO)c34)c(C)cn2)n1	–
6.31 nM	–	–	–	50.1 nM	Fc1ccc(Cl)cc1-c1cc(Nc2ccnc3cn[nH]c23)ccn1	–
–	158 nM	0.79	0.68	126 nM	Cc1cnc(-c2cc(F)ccc2F)cc1Nc1ccnc2cn(CC(C)O)nc12 (centres undefined)	–
25.1 nM	–	–	–	–	COc1cccc2nccc(Nc3ccnc(-c4cc(C)ccc4F)c3)c12	–
100 nM	–	0.36	0.16	1000 nM	Fc1ccc(Cl)cc1-c1cc(Nc2ccnc3cn(CC4CCNCC4)nc23)ccn1	–
39.8 nM	–	–	–	–	COc1cccc2nccc(Nc3ccnc(-c4nc(C)ccc4F)c3)c12	–
–	158 nM	0.53	0.29	31.6 nM	CCNC(=O)n1ncc2nccc(Nc3ccnc(-c4cc(F)ccc4F)c3)c21	–
15.8 nM	–	–	–	–	Cc1ccc(F)c(-c2cc(Nc3ccnc4cn[nH]c34)ccn2)c1	–
50.1 nM	–	–	–	–	COc1cccc2nccc(Nc3cc(-c4cc(Cl)ccc4F)ncc3C3CC3)c12	–
31.6 nM	–	–	–	–	COc1cccc2nccc(Nc3cc(-c4cccc(Cl)c4)ncc3C)c12	–
12.6 nM	–	0.52	0.54	100 nM	NC(=O)Cn1cc2nccc(Nc3ccnc(-c4cc(Cl)ccc4F)c3)c2n1	inhibition at 10 µM (hERG (KCNH2)): 41 to 59%; IC50 (Cytochrome P450 3A4): 12600 nM
–	1580 nM	0.44	0.42	251 nM	NC(=O)Cn1cc2nccc(Nc3ccnc(-c4cc(F)ccc4F)c3)c2n1	–
316 nM	–	–	–	–	COc1cccc2nccc(Nc3ccnc(-c4cccc(Cl)c4)c3)c12	–
2.51 nM	126 nM	0.55	0.27	20 nM	CNC(=O)n1ncc2nccc(Nc3ccnc(-c4cc(F)ccc4F)c3)c21	–
3.16 nM	20 nM	0.64	0.54	7.94 nM	Cc1cnc(-c2cc(F)ccc2F)cc1Nc1ccnc2cnn(CC(C)O)c12 (centres undefined)	–
–	31.6 nM	0.54	0.44	20 nM	Cc1cnc(-c2cc(Cl)ccc2F)cc1Nc1ccnc2cnn(CC(N)=O)c12	inhibition at 10 µM (hERG (KCNH2)): 41 to 59%; IC50 (Cytochrome P450 3A4): 12600 nM; clearance [9]: 42 mL/min/kg; bioavailability [8]: 71%
